Measured values as given in US8835447B2, “Method for treating androgen receptor positive cancers” (priority 2009, dated 2014).
“Also recorded” adds a separate entry of the source.

Assays:
[1] = test system: HT1080, HeLa and DU145 cells; experiment: Colony formation assay, non-PCa and AR-negative PCa cells; type: cell-based, human; conditions: 10 μM, 7 days
Description: (§1) Cell Colony Assay: Cells were plated in 24-well plates at a density allowing 6-7 days of exponential growth before confluency. Medium and compound was replaced every 48 hours to minimize the effect of potential compound instability. After 7 days of incubation in the presence of compound, cells were fixed and stained with methylene blue, followed by extraction of the stain with 1% SDS and spectrophotometry at 650 nm. Each assay was run in triplicate and the difference between control and compound-treated wells was determined using Student's t-test.
(§2) This Example provides a description of the effect of the selected compounds on the growth of PCa cells. To test the toxicity of the identified AR inhibitors towards cells of different origins, we performed colony formation assays using a single dose of each compound (10 μM) on several PCa (LNCaP, C4-2, CWR22R and DU145) and two non-PCa (HT1080 and HeLa) cell lines (FIG. 2A). […] These compounds were not weaker inhibitors of AR transcriptional activity in CWR22R or C4-2 cells than compounds that inhibited growth of the cells.

[2] = test system: AR-expressing PCa cell lines (LNCaP, C4-2, CWR22R); experiment: Toxicity to AR-expressing PCa cell lines (colony formation / dose-dependent growth inhibition); type: cell-based, human; conditions: for toxicity towards AR-expressing PCa cell lines: colony formation, 10 μM, three AR-expressing PCa cell lines; for degree of toxicity to PCa cells (killing vs reduced growth): dose-dependent toxicity, by day 7
Description: as §1
Dose-dependent inhibition of cell growth: Cells were plated at 1×10^3 cells per well in 96-well plates. Compounds were added in a dose range from 1 to 20000 nM in two-fold increments. Each dose was tested in triplicate. Controls were 0.1% DMSO (no effect on cell viability) and 50 μM 9-aminoacridine (complete cell death). Cells were incubated for 6 days and then fixed and stained with methylene blue, followed by extraction of the stain with 1% SDS and spectrophotometry at 650 nm. The assay was run two times and, based on the results, the inhibitory concentration of compound suppressing cell growth by 50% as compared to DMSO (IC50) was calculated by the sigmoid approximation method using CalcuSyn software (Biosoft, Chembridge, UK). Confidence intervals were calculated for each sigmoid.
as §2, with “the cells. […]” for “the cells.”

[3] = test system: CWR22R cells; experiment: Cell cycle distribution by propidium iodide staining; type: cell-based, human; conditions: for changes in cell cycle distribution: increase in G1, decrease in S phase; for cells with sub-G1 DNA content (apoptotic): propidium iodide FACS
Description: Analysis of cell cycle distribution was based on staining of DNA content by propidium iodide. 10^5 cells were removed from culture dishes using trypsin, washed with PBS and resuspended in 300 μl 3% BSA in PBS, followed by addition of […] 70% ethanol. Cells were kept at −20° C. for several hours and then stained with 10 μg/ml propidium iodide in the presence of 30 μg/ml RNase A for 2 hrs at 37° C. DNA content was assessed using a FACS Calibur instrument and CellQuest software (Becton Dickinson, Franklin Lakes, N.J.).
To test this possibility, we assessed the cell cycle distribution of CWR22R cells treated with both categories of compounds. […] Therefore, different subsets of compounds inhibiting AR-dependent transcription in androgen-independent PCa cells cause either growth arrest or apoptosis in these cells. Whether a compound causes growth arrest or apoptosis is not determined by the potency of the compound as an inhibitor of AR-dependent transcription (i.e., FIG. 2B).

[4] = test system: NIH Swiss mice; experiment: Compound safety in mice, dose escalation; type: in vivo; conditions: three i.p. injections 20x, 50x, 100xIC50 in 3 day intervals
Description: Testing of compound safety in mice was done according to an IACUC-approved protocol. The experiment was performed using outbred 8 week old NIH Swiss male mice from Harlan (Indianapolis, Ind.), 4 mice per group. IC50 concentrations were used to calculate in vivo doses based on mouse weight (IC50 in vivo dose equivalent in mg/kg=IC50 in mg/ml×1000, based on the assumption that 1 g of mouse tissues have an approximate volume of 1 ml). The compounds were injected intraperitoneally (i.p.) in 25% DMSO-75% PBS starting from 20×IC50 equivalent of in vitro cytotoxic dose of compounds. […]. The control group of mice received 3 injections of 25% DMSO-75% PBS in intervals of three days. Blood biochemistry analysis was performed by BioReliance (Rockville, Md.).
Five hit compounds, representing both the ARTIS and ARTIK categories (c6, c11, c17, c52 and c85), were selected for in vivo tests based on all of the previous assays. Compound c5 was rejected due to very low microsomal stability (<5% after 1 hour incubation with rat microsomes). The toxicity of the compounds was evaluated in a dose escalation assay in which male NIH Swiss mice (n=4) received three sequential intraperitoneal (i.p.) injections of each compound delivered in 3 day intervals. […]. On the day after the last injection, half of the mice in each group were sacrificed for gross pathology examination and collection of blood for serum biochemistry assays, which include total protein, glucose, bilirubin, and creatinine levels, activity of liver enzymes, and ion concentrations. The remaining mice were sacrificed and evaluated similarly 7 days after the last compound injection. […] A minor decrease in serum glucose concentration (70-80% of control) was observed on the day after the last compound injection in almost all mice, but glucose levels were normal a week later (data not shown). Low serum glucose level might reflect of a weak transient GR-inhibitory effect of the selected compounds.

[5] = test system: C4-2 tumors; experiment: C4-2 xenograft model in nude mice; type: in vivo, mouse; conditions: 6 daily i.p. injections, 100xIC50 dose
Source text: FIGS. 6A and 6B provide data showing anti-tumor activity of the selected hits in mouse models of androgen-independent PCa. FIG. 6A provides a graphical representation of data obtained from i.p. injection of the listed compounds or DMSO vehicle into nude mice carrying subcutaneous (s.c.) C4-2 tumors. Six daily injections were given starting when tumors were around 100 mm3 in size. There were 4-5 mice per group with two tumors per mouse. Asterisks (*) and number signs (#) are placed under the means of measurement in the c6 and c11 groups respectively which are statistically different from the control group by ANOVA test (>99%) B. C52 (9 mg/kg or 18 mg/kg) or DMSO vehicle was injected into the tail vein of nude mice carrying s.c. CWR22R tumors. Five daily injections were given starting when tumors were around 40 mm3 in size. There were 10 mice per group with one tumor per mouse. Asterisks (*) are placed under the means of measurement which are statistically different from the control group by ANOVA test (>99%). Error bars in both FIGS. 6A and B—standard deviation between the size of tumors within a given treatment group.
Testing of the anti-tumor effect of compounds in mice was done according to an IACUC-approved protocol in 8 week old male athymic nude mice from Harlan (Indianapolis, Ind.). For the C4-2 xenograft model, 10^6 C4-2 cells were injected subcutaneously (s.c.) in 2 sites of each mouse in 50% matrigel (BD Biosciences, Bradford, Mass.) in PBS. Upon development of visible tumors, they were measured using digital caliper. Tumor volume was calculated according to the formula: […]. Mice were injected with compounds i.p. daily for 6 days starting on the day when at least one tumor per mouse reached 100 mm^3 in size. Five mice per group were used. For the CWR22R xenograft model, CWR22R cells were inoculated (10^5 cells per inoculum) in 50% matrigel, one site per mouse. Treatment was started when the tumor grew to a size of at least 25 mm^3. Compounds were diluted in captisol (CyDex, Lenexa, Kans.) and delivered intravenously (to reduce “first pass” liver effect) once a day for 5 days. Ten mice per group were used. Mice were monitored daily and tumors were measured every other day. Mice were euthanized according to institutional regulations when the size of tumor reached 1000 mm^3. Comparison of the tumor growth in control and treated mice was done using ANOVA test.
We evaluated the potential anti-tumor effect of the hits using C4-2 and CWR22R xenograft models of androgen-independent PCa in nude mice. Groups of C4-2 tumor-bearing mice (4-5 mice per group, each with two tumors) were given 6 daily i.p. injections of compound (100×IC50 dose) or DMSO vehicle.

[6] = test system: LNCaP cells; experiment: Colony formation assay, LNCaP cells; type: cell-based, human; conditions: 10 μM, 7 days
Description: (§3) Cell Colony Assay: Cells were plated in 24-well plates at a density allowing 6-7 days of exponential growth before confluency. Medium and compound was replaced every 48 hours to minimize the effect of potential compound instability. After 7 days of incubation in the presence of compound, cells were fixed and stained with methylene blue, followed by extraction of the stain with 1% SDS and spectrophotometry at 650 nm. Each assay was run in triplicate and the difference between control and compound-treated wells was determined using Student's t-test. This Example provides a description of the effect of the selected compounds on the growth of PCa cells. To test the toxicity of the identified AR inhibitors towards cells of different origins, we performed colony formation assays using a single dose of each compound (10 μM) on several PCa (LNCaP, C4-2, CW[…] and DU145) and two non-PCa (HT1080 and HeLa) cell lines (FIG. 2A). […] These compounds were not weaker inhibitors of AR transcriptional activity in CW[…] or C4-2 cells than compounds that inhibited growth of the cells.

[7] = test system: C4-2 and CWR22R cells; experiment: Colony formation assay, androgen-independent C4-2 and CWR22R cells; type: cell-based, human; conditions: 10 μM, 7 days
Description: as §3

Compound	growth of / toxicity towards non-PCa cells or AR-negative PCa cells (DU145) [1]	toxicity towards AR-expressing PCa cell lines [2]	degree of toxicity to PCa cells (killing vs reduced growth) [2]	changes in cell cycle distribution [3]	cells with sub-G1 DNA content (apoptotic) [3]	toxicity in mice (visual inspection, gross pathology) [4]	C4-2 tumor growth [5]	growth of androgen-sensitive LNCaP cells [6]	growth of androgen-independent C4-2 and CWR22R cells [7]
Clc1ccccc1C1Nc2cccc3cccc(c23)N1 [c6]	no toxicity	different degrees of toxicity; also recorded: suppress growth of all	reduced growth as compared to untreated control cells, but not obvious cell death	cell cycle arrest	did not result in appearance of cells with sub-G1 DNA content	generally non-toxic	clear suppression of C4-2 tumor growth		
CC1=C(C(=O)OCCc2ccccc2)C(c2ccc(Cl)cc2)C2=C(CCCC2=O)N1 (centres unmarked) [c8]								suppressed growth of LNCaP cells; also recorded: suppress growth of androgen-sensitive LNCaP cells	do not affect growth
CC(C)(C)c1ccc(C(=O)Nc2ccc(NC(=O)c3ccc4c(c3)OCCO4)cc2)cc1 [c11]	no toxicity	different degrees of toxicity; also recorded: suppress growth of all	reduced growth as compared to untreated control cells, but not obvious cell death	cell cycle arrest	did not result in appearance of cells with sub-G1 DNA content	generally non-toxic	clear suppression of C4-2 tumor growth		
CC(C)c1ccc2oc(-c3cccc(NC(=S)NC(=O)c4ccccc4Br)c3)nc2c1 [c16]								suppressed growth of LNCaP cells; also recorded: suppress growth of androgen-sensitive LNCaP cells	do not affect growth
O=C(NC(=S)Nc1nc(-c2ccccc2)cs1)c1ccc(-c2ccccc2)cc1 [c17]	no toxicity	different degrees of toxicity; also recorded: suppress growth of all	reduced growth as compared to untreated control cells, but not obvious cell death				did not		
C=CCc1ccccc1OCCOc1ccc(C=Nn2cnnc2)cc1OC [c18]	no toxicity	different degrees of toxicity; also recorded: suppress growth of all	reduced growth as compared to untreated control cells, but not obvious cell death						
C=CCc1ccc(OCCCOc2ccccc2C(C)=O)c(OC)c1 [c47]								suppressed growth of LNCaP cells; also recorded: suppress growth of androgen-sensitive LNCaP cells	do not affect growth
c1ccc(CNc2ccc(-c3nc4ccccc4o3)cc2)cc1 [c55]								suppressed growth of LNCaP cells; also recorded: suppress growth of androgen-sensitive LNCaP cells	do not affect growth
Cc1ccc(OCC(=O)Nc2ccc(Cl)c([N+](=O)[O-])c2)c(C)c1 [c61]								suppressed growth of LNCaP cells; also recorded: suppress growth of androgen-sensitive LNCaP cells	do not affect growth
FC(F)(F)c1ccccc1CN1CCN(Cc2c[nH]c3ccccc23)CC1 [c66]	exception								
